US10202364B2, “Forms and compositions of an ERK inhibitor” (Celgene CAR LLC, priority 2014, dated 2019)
Read-outs that look alike come from different tables or passages of the source. Blank lines part the entries; values can stand above or below the compound they belong to.

Tests used:
[1] = Free base competitive slurries / form conversion (XRPD and DSC); type: physicochemical; conditions: compound 1 free base, stirred in methanol at room temperature for 24 hours
Experimental: Free Base Competitive Slurries:
Three competitive slurry experiments were performed:
1: Form A (20.0 mg)+Form C (20.4 mg) in 0.4 ml ethyl acetate
2: Form B (15.7 mg)+Form C (15.6 mg) in 0.3 ml ethyl acetate
3: Form A (13.3 mg)+Form B (11.5 mg) in 0.3 ml ethyl acetate
The three slurries were stirred vigorously for three days. Solids were then filtered and dried.
About 20 mg Form C was stirred in methanol (˜2 mL) at room temperature for 24 hours. Solids were filtered and dried.

[2] = Single oral dose pharmacokinetic (PK) study in dogs, fasted and fed; type: in vivo; conditions: 15 mg/kg oral suspension; for AUC(0-t) / Cmax: both sexes, dog, in vivo, po, 15 mg/kg
Experimental: The pharmacokinetics of compound 1 (free base, administered to dosing group 1), compound 2 (phosphate salt, administered to dosing group 4), compound 4 (hydrochloride salt, administered to dosing group 2), compound 5 (bromide salt, administered to dosing group 5), and compound 6 (sulfate salt, administered to dosing group 3) were evaluated in dogs (2/sex/group) in a parallel design study. In addition, the effect of food on the systemic exposure to compounds 1, 2, 4, 5 and 6 was also evaluated. Compounds 1, 2, 4, 5 and 6 were orally administered at 15 mg/kg to dogs in a fasted state (overnight fast) on day 1 and administered under fed conditions (a meal was provided one hour prior to dosing) on day 9. Doses were administered as a suspension in 5% Captisol/0.2% Tween 80/0.05M Citrate buffer (compound 1) and 5% Captisol/0.2% Tween (compounds 2, 4, 5 and 6). Animals were habituated (days 2 to 8) to consume their entire daily ration (˜400 g) in 1 hour. Pharmacokinetic samples were collected on days 1 and 9 at 0, 0.5, 1, 2, 4, 6, 8, 12, and 24 hours after dosing.

[3] = system: one or both of ERK1 and ERK2 kinases; conditions: see Table A of the '230 publication; cited from earlier work
[4] = Solubility in water at ambient temperature; type: physicochemical; conditions: for pH at 48 hrs: pH of the solubility sample in water at 48 hrs; for Conc. (μg/mL) at 24 hours / Conc. (μg/mL) at 48 hours: water, ambient temperature, free base-equivalent value, HPLC/UV; for Conc. (μg/mL) at 24 hours: shaken 24 hours; for Conc. (μg/mL) at 48 hours: shaken 48 hours
Experimental: Each of compounds 1 through 9 were weighed into separate 8 mL clear glass vials. After addition of 3.2 mL of water, the vials were capped and shaken on an orbital shaker at 300 RPM at ambient temperature for 24 hours. The samples were removed from the shaker and the pH of each was measured using a calibrated pH meter. Next, a portion of the each sample was withdrawn and filtered using a PVDF-membrane syringe filter. The filtrate was analyzed using HPLC/UV with appropriate dilution. The solubility was reported as free base-equivalent value because the free base was used as the standard for HPLC analysis. The rest of the samples were shaken for another 24 hours for 48-hour solubility measurement using the same procedure. After the 48-hour solubility tests were run, the solid residues were recovered through filtration using 0.2 μm Nylon-membrane centrifuge tube filters at 14000 RPM for 5 min and analyzed using XRPD.
For the bis-phosphate complex and bis-sulfate salt, measurements were only performed at the 24-hour time point.

[5] = Hygroscopicity by Dynamic Vapor Sorption (DVS); type: physicochemical; conditions: at 95% relative humidity
Experimental: Hygroscopicity was determined on a Surface Measurement Systems DVS-1 or DVS-Advantage Dynamic Vapor Sorption analyzer. A typical sample size of 5 to 20 mg was loaded into the DVS instrument sample pan and the sample was analyzed on a DVS automated sorption analyzer at room temperature. The relative humidity (RH) was increased from 0 or 5% to 90 or 95% RH at 5 or 10% RH steps. The RH was then decreased in a similar manner to accomplish a full absorption/desorption cycle. In some cases a second absorption/desorption cycle was performed.

[6] = Phosphate interconversions from polymorph screen (slurries, XRPD); type: physicochemical; conditions: RT, 5 days
Text: Phosphate Interconversions

[7] = fasted, day 1, mean, read-out: AUClast, Day 1 (Fasted)
[8] = fasted, day 1, mean, read-out: Cmax, Day 1 (Fasted)
[9] = fed, day 9, mean, read-out: AUClast, Day 9 (Fed)
[10] = fed, day 9, mean, read-out: Cmax, Day 9 (Fed)

form after slurry (XRPD and DSC) [1]: converted to Form B
AUClast, Day 1 (Fasted) ([2]; fasted, day 1, mean): 286 ng·h/mL
Cmax, Day 1 (Fasted) ([2]; fasted, day 1, mean): 0.0981 µg/mL
AUClast, Day 9 (Fed) ([2]; fed, day 9, mean): 1890 ng·h/mL
Cmax, Day 9 (Fed) ([2]; fed, day 9, mean): 0.293 µg/mL
SMILES: C=CC(=O)Nc1cc(C)ccc1Nc1nc(Nc2cc(OC)ncc2C)ncc1C(F)(F)F [Compound 1, Form C, N-(2-((2-((2-methoxy-5-methylpyridin-4-yl)amino)-5-(trifluoromethyl)pyrimidin-4-yl)amino)-5-methylphenyl)acrylamide]

pH at 48 hrs [4]: 6.33
Conc. (μg/mL) at 24 hours [4]: 0.07 µg/mL
Conc. (μg/mL) at 48 hours [4]: 0.05 µg/mL
SMILES: C=CC(=O)Nc1cc(C)ccc1Nc1nc(Nc2cc(OC)ncc2C)ncc1C(F)(F)F [Compound 1, N-(2-((2-((2-methoxy-5-methylpyridin-4-yl)amino)-5-(trifluoromethyl)pyrimidin-4-yl)amino)-5-methylphenyl)acrylamide]
inhibition of one or both of ERK1 and ERK2 kinases [3]: covalent, irreversible inhibition

water uptake [5]: Up to 3.8%
AUC(0-t) [2, 7]: 1080 ng·h/mL
Cmax [2, 8]: 0.345 µg/mL
AUC(0-t) [2, 9]: 3880 ng·h/mL
Cmax [2, 10]: 0.79 µg/mL
SMILES: C=CC(=O)Nc1cc(C)ccc1Nc1nc(Nc2cc(OC)ncc2C)ncc1C(F)(F)F.O=P(O)(O)O [Compound 2, Form A]

pH at 48 hrs [4]: 2.48
Conc. (μg/mL) at 24 hours [4]: 19.40 µg/mL
Conc. (μg/mL) at 48 hours [4]: 91.69 µg/mL
SMILES: C=CC(=O)Nc1cc(C)ccc1Nc1nc(Nc2cc(OC)ncc2C)ncc1C(F)(F)F.O=P(O)(O)O [Compound 2]

Conc. (μg/mL) at 24 hours [4]: 113 µg/mL
SMILES: C=CC(=O)Nc1cc(C)ccc1Nc1nc(Nc2cc(OC)ncc2C)ncc1C(F)(F)F [Compound 3]

AUC(0-t) [2, 7]: 856 ng·h/mL
Cmax [2, 8]: 0.323 µg/mL
AUC(0-t) [2, 9]: 3350 ng·h/mL
Cmax [2, 10]: 0.818 µg/mL
SMILES: C=CC(=O)Nc1cc(C)ccc1Nc1nc(Nc2cc(OC)ncc2C)ncc1C(F)(F)F.Cl [Compound 4, Form A]

pH at 48 hrs [4]: 2.29
Conc. (μg/mL) at 24 hours [4]: 162.33 µg/mL
Conc. (μg/mL) at 48 hours [4]: 134.08 µg/mL
SMILES: C=CC(=O)Nc1cc(C)ccc1Nc1nc(Nc2cc(OC)ncc2C)ncc1C(F)(F)F.Cl [Compound 4]

AUC(0-t) [2, 7]: 1680 ng·h/mL
Cmax [2, 8]: 0.393 µg/mL
AUC(0-t) [2, 9]: 5030 ng·h/mL
Cmax [2, 10]: 0.826 µg/mL
SMILES: Br.C=CC(=O)Nc1cc(C)ccc1Nc1nc(Nc2cc(OC)ncc2C)ncc1C(F)(F)F [Compound 5, Form A]

pH at 48 hrs [4]: 2.27
Conc. (μg/mL) at 24 hours [4]: 190.63 µg/mL
Conc. (μg/mL) at 48 hours [4]: 207.42 µg/mL
SMILES: Br.C=CC(=O)Nc1cc(C)ccc1Nc1nc(Nc2cc(OC)ncc2C)ncc1C(F)(F)F [Compound 5]

AUClast, Day 1 (Fasted) ([2]; fasted, day 1, mean): 1120 ng·h/mL
Cmax, Day 1 (Fasted) ([2]; fasted, day 1, mean): 0.364 µg/mL
AUClast, Day 9 (Fed) ([2]; fed, day 9, mean): 5590 ng·h/mL
Cmax, Day 9 (Fed) ([2]; fed, day 9, mean): 0.74 µg/mL
SMILES: C=CC(=O)Nc1cc(C)ccc1Nc1nc(Nc2cc(OC)ncc2C)ncc1C(F)(F)F [Compound 6, Form A]

pH at 48 hrs [4]: 1.98
Conc. (μg/mL) at 24 hours [4]: 560.02 µg/mL
Conc. (μg/mL) at 48 hours [4]: 409.83 µg/mL
SMILES: C=CC(=O)Nc1cc(C)ccc1Nc1nc(Nc2cc(OC)ncc2C)ncc1C(F)(F)F [Compound 6]

Conc. (μg/mL) at 24 hours [4]: 1170 µg/mL
SMILES: C=CC(=O)Nc1cc(C)ccc1Nc1nc(Nc2cc(OC)ncc2C)ncc1C(F)(F)F [Compound 7]

pH at 48 hrs [4]: 2.00
Conc. (μg/mL) at 24 hours [4]: 218.34 µg/mL
Conc. (μg/mL) at 48 hours [4]: 184.83 µg/mL
SMILES: C=CC(=O)Nc1cc(C)ccc1Nc1nc(Nc2cc(OC)ncc2C)ncc1C(F)(F)F.Cc1ccc(S(=O)(=O)O)cc1 [Compound 8]

pH at 48 hrs [4]: 2.10
Conc. (μg/mL) at 24 hours [4]: 173.63 µg/mL
Conc. (μg/mL) at 48 hours [4]: 143.49 µg/mL
SMILES: C=CC(=O)Nc1cc(C)ccc1Nc1nc(Nc2cc(OC)ncc2C)ncc1C(F)(F)F.O=S(=O)(O)c1ccccc1 [Compound 9]

XRPD Result ([6]; slurry in EtOH): Form A + free base
XRPD Result ([6]; slurry in MeCN): Form A
XRPD Result ([6]; slurry in MeCN/water (1:1)): free base (Form D)
XRPD Result ([6]; slurry in MeOH): free base (Form B)
XRPD Result ([6]; slurry in acetone): Form A
SMILES: C=CC(=O)Nc1cc(C)ccc1Nc1nc(Nc2cc(OC)ncc2C)ncc1C(F)(F)F.O=P(O)(O)O [Form B]
